For series [1], the system named is hepatocytes. Briefly: Hepatocyte stability assay (human). The series is classed as in vitro ADME. The following applies: 10 μM compound, 60 min. An excerpt:
(§1) Defrosted cryo-preserved hepatocytes (viability>70%) were used to determine the metabolic stability of a compound via calculation of intrinsic clearance (Clint; a measure of the removal of a compound from the liver in the absence of blood flow and cell binding). Clearance data are particularly important for in vitro work as they can be used in combination with in vivo data to predict the half-life and oral bioavailability of a drug.
(§2) The metabolic stability in hepatocytes assay involved a time-dependent reaction using both positive and negative controls. The cells must be pre-incubated at 37° C. then spiked with test compound (and positive control); samples taken at pre-determined time intervals were analysed to monitor the change in concentration of the initial drug compound over 60 minutes. A buffer incubation reaction (with no hepatocytes present) acted as a negative control and two cocktail solutions, containing compounds with known high and low clearance values (verapamil/7-hydroxycoumarin and propranolol/diltiazem), acted as positive controls. • 1. The assay was run with a cell concentration of 0.5×10^6 cells/mL in Leibovitz buffer. • 2. All compounds and controls were run in duplicate. • 3. Compound concentration was 10 μM. • 4. All compounds and controls were incubated with both cells and buffer to show turnover is due to hepatic metabolism. • 5. All wells on the incubation plate had 326.7 μL of either cells or buffer added. • 6. Prior to assay, cell and buffer-only incubation plates were preincubated for 10 mins at 37° C. • 7. The assay was initiated by adding compounds, 3.3 μL of 1 mM in 10% DMSO-90% Buffer; final DMSO concentration is 0.1%. • 8. Samples were taken at regular timepoints (0, 5, 10, 20, 40, 60 min) until 60 mins. • 9. Sample volume was 40 μL and added to 160 μL of crash solvent (acetonitrile with internal standard) and stored on ice. • 10. At the end of the assay, the crash plates were centrifuged at 3500 rpm for 20 mins at 4° C. • 11. 80 μL of clear supernatant was removed and mixed with 80 μL of deionised water before being analysed by LC-MS/MS.
(§3) Raw LC-MS/MS data were exported to, and analysed in, Microsoft Excel for determination of intrinsic clearance. The percentage remaining of a compound was monitored using the peak area of the initial concentration as 100%. Intrinsic clearance and half-life values were calculated using a graph of the natural log of percentage remaining versus the time of reaction in minutes. Half-life (min) and intrinsic clearance (Clint in μL min^−1 10^−6 cells) values were calculated using the gradient of the graph (the elimination rate constant, k) and Equations 1 and 2.

Series [2] can be described thus: Hepatocyte stability assay (human). The series is classed as in vitro ADME. The following applies: human, cryopreserved hepatocytes, 10 μM compound, 60 min, read-out: T½.
From the text: as §1, §2, §3

In the next series the test system is IL-6. Briefly: THP-1 AlphaLISA IL-6 cytokine assay. In kind it is cell-based. To be noted: Homo sapiens, THP-1, differentiated THP-1 cells, LPS 24 hr then Nigericin 1 hour. As to the method:
(§4) Measuring Inhibitory Effects on IL-1V and IL-6 Cytokine Output from THP-1s
(§5) The cytokine inhibition profiles of compounds of formula (I) were determined in a differentiated THP-1 cell assay. All assays were performed in RPMI-1640 growth medium (Gibco), supplemented with 10% fetal bovine serum (FBS; Gibco), 1% penicillin-streptomycin and 1% sodium pyruvate unless specified otherwise. The IL-1β and IL-6 cytokine inhibition assays were run in a background of differentiated THP-1 cells as described below. All reagents described were from Sigma-Aldrich unless specified otherwise. Compounds were prepared as 10 mM DMSO stocks.
(§6) THP-1 cells were expanded as a suspension up to 80% confluence in appropriate growth medium. Cells were harvested, suspended, and treated with an appropriate concentration of phorbol 12-myristate 13-acetate (PMA) over a 72 hr period (37° C./5% CO2).
(§7) Following 72 hrs of THP-1 cell incubation, cellular medium was removed and replaced with fresh growth media containing 1% of FBS. Working concentrations of compounds were prepared separately in 10% FBS treated growth medium and pre-incubated with the cells for 30 minutes (37° C./5% CO2). Following the 30 minute compound pre-incubation, THP-1s were treated with an appropriate concentration of LPS and the THP-1s were subsequently incubated for a 24 hr period (37° C./5% CO2). An appropriate final concentration of Nigericin was then dispensed into the THP-1 plates and incubated for 1 hour (37° C./5% CO2) before THP-1 supernatants were harvested and collected in separate polypropylene 96-well holding plates.
(§8) Reagents from each of the IL-1β and IL-6 commercial kits (Perkin Elmer) were prepared and run according to the manufacturer's instructions. Subsequently, fluorescence signal detection in a microplate reader was measured (EnVision® Multilabel Reader, Perkin Elmer).
(§9) Percentage inhibition was calculated per cytokine by normalising the sample data to the high and low controls used within each plate (+/−LPS respectively). Percentage inhibition was then plotted against compound concentration and the 50% inhibitory concentration ([…]) was determined from the resultant concentration-response curve.
A general note: Alpha assays give light when donor and acceptor beads are brought close together.

Series [3] deals with hepatocytes. Description: Hepatocyte stability assay (mouse). The series is classed as in vitro ADME. To be noted: 10 μM compound, 60 min.
From the text: as §1, §2, §3

Series [4] in a line: Hepatocyte stability assay (mouse). The series is classed as in vitro ADME. The following applies: mouse, cryopreserved hepatocytes, 10 μM compound, 60 min, read-out: T½.
From the text: as §1, §2, §3

The next series deals with IL-1β. Briefly: THP-1 AlphaLISA IL-1β cytokine assay. In kind it is cell-based. The following applies: Homo sapiens, THP-1, differentiated THP-1 cells. The protocol: as §4, §5, §6, §7, §8, §9
For another series, the system named is NRF2. Briefly: NRF2 +/- GSH activation assay (DiscoverX PathHunter NRF2 translocation kit). In kind it is cell-based. To be noted: for Emax: normalised to dimethyl fumarate high control; for EC50: Homo sapiens, U2OS, U2OS PathHunter cells.
[5] abbreviates: LPS 24 hr then Nigericin 1 hour.

Each structure is given as a SMILES string. Some results are limits rather than exact numbers.

In general, IC50 refers to the concentration that inhibits the measured activity by half. Read a low IC50 as greater potency in that assay. Consider `C=C(CC(=O)OC1(c2ccc(C(F)(F)F)cc2)CC(C)C1)C(=O)O` (single isomer, unassigned) [Example 44, 4-(3-methyl-1-(4-(trifluoromethyl)phenyl)cyclobutoxy)-2-methylene-4-oxobutanoic acid], for which the Clint is less than 3 μL min^−1 10^−6 cells with hepatocytes [1] and 9 μL min^−1 10^−6 cells in the series with hepatocytes [3]. For the same compound, the half-life at 10 μM in series [2] is more than 7.67 h; in series [4] it was 2.33 h. In addition, the IC50 in the series on IL-6 was more than 100 µM; in the series with IL-1β (setting [5]), 5.1 µM.

Usually Emax stands for the maximal effect, on the per cent scale that the assay sets. Usually EC50 stands for the midpoint of the concentration-response curve. Regarding `C=C(CC(=O)O[C@@H](C)c1ccc(C(F)(F)F)cc1)C(=O)O` [Example 4, (S)-2-methylene-4-oxo-4-(1-(4-(trifluoromethyl)phenyl)ethoxy)butanoic acid], the Clint with hepatocytes [1] was found to be 10 μL min^−1 10^−6 cells. In addition, the half-life at 10 μM in series [2] was determined as 2.45 h. Besides, the Emax came to 0% with NRF2 (+GSH) and 4% in the series on NRF2 (−GSH). The EC50 with NRF2 (+GSH) and in the series with NRF2 (−GSH) was more than 100 µM in each case. Besides, the IC50 with IL-6 is more than 56.2 µM; in the series with IL-1β (setting [5]), 1.9 µM.

With `C=C(CC(=O)OC1(c2ccc(Br)cc2)CCC1)C(=O)O` [Example 5, 4-(1-(4-bromophenyl)cyclobutoxy)-2-methylene-4-oxobutanoic acid], the Clint was determined as 15 μL min^−1 10^−6 cells with hepatocytes [1] and 25 μL min^−1 10^−6 cells in the series on hepatocytes [3]. Moreover, the half-life at 10 μM in series [2] is 1.48 h; in series [4], 1.13 h. In addition, the figures for the half-inhibitory concentration (IC50) with IL-6 and in the series on IL-1β (setting [5]) were more than 31.6 µM and 0.7 µM, respectively.

For `C=C(CC(=O)OC1(c2ccc(C(F)(F)F)c(F)c2)CCC1)C(=O)O` [Example 17, 4-(1-(3-fluoro-4-(trifluoromethyl)phenyl)cyclobutoxy)-2-methylene-4-oxobutanoic acid], the figures for the Clint in the series with hepatocytes [1] and in the series on hepatocytes [3] were 11 μL min^−1 10^−6 cells and 9 μL min^−1 10^−6 cells, respectively. Also, the half-life at 10 μM in series [2] stood at 2.62 h; in series [4], 3.53 h. Further, the IC50 in the series with IL-6 is more than 31.6 µM; with IL-1β (setting [5]), 2 µM.

For the compound `C=C(CC(=O)OC1(c2ccc(S(F)(F)(F)(F)F)cc2)CCC1)C(=O)O` [Example 18, 2-methylene-4-oxo-4-(1-(4-(pentafluoro-λ^6-sulfaneyl)phenyl)cyclobutoxy)butanoic acid], the Clint with hepatocytes [1] turned out to be 8 μL min^−1 10^−6 cells; with hepatocytes [3], 50 μL min^−1 10^−6 cells. The half-life at 10 μM in series [2] is 3.63 h; in series [4], 0.633 h. The concentration for half-maximal inhibition (IC50) amounted to 62.1 µM with IL-6 and 1.8 µM with IL-1β (setting [5]).

On to `C=C(CC(=O)OC1(c2ccc(C(C)(F)F)cc2)CCC1)C(=O)O` [Example 19, 4-(1-(4-(1,1-difluoroethyl)phenyl)cyclobutoxy)-2-methylene-4-oxobutanoic acid], for which the Clint stood at 4 μL min^−1 10^−6 cells in the series with hepatocytes [1] and 23 μL min^−1 10^−6 cells in the series with hepatocytes [3]. Also, the half-life at 10 μM came out at 7.45 h in series [2] and 1.35 h in series [4]. Also, the half-inhibitory concentration (IC50) in the series on IL-6 was more than 68.1 µM; in the series with IL-1β (setting [5]), 1.2 µM.

Regarding `C=C(CC(=O)OC1(c2ccc(C(F)F)cc2)CCC1)C(=O)O` [Example 20, 4-(1-(4-(difluoromethyl)phenyl)cyclobutoxy)-2-methylene-4-oxobutanoic acid], the Clint with hepatocytes [1] was determined as 4 μL min^−1 10^−6 cells; in the series on hepatocytes [3], 13 μL min^−1 10^−6 cells. Moreover, the half-life at 10 μM worked out at 7.45 h in series [2] and 2.33 h in series [4]. The concentration for half-maximal inhibition (IC50) turned out to be 48.7 µM with IL-6 and 3 µM in the series with IL-1β (setting [5]).

As for `C=C(CC(=O)OC1(c2ccc(C(F)(F)F)nc2)CCC1)C(=O)O` [Example 22, 2-methylene-4-oxo-4-(1-(6-(trifluoromethyl)pyridin-3-yl)cyclobutoxy)butanoic acid], the Clint with hepatocytes [1] is given as less than 3 μL min^−1 10^−6 cells; in the series on hepatocytes [3] it was 4 μL min^−1 10^−6 cells. Further, the half-life at 10 μM is more than 7.67 h in series [2] and 8.87 h in series [4]. Besides, the IC50 in the series on IL-6 was more than 100 µM; in the series on IL-1β (setting [5]), 5.1 µM.

For `C=C(CC(=O)OC1(c2ccc(Br)cc2)COC1)C(=O)O` [Example 23, 4-((3-(4-bromophenyl)oxetan-3-yl)oxy)-2-methylene-4-oxobutanoic acid], the values for the Clint with hepatocytes [1] and in the series with hepatocytes [3] were less than 3 μL min^−1 10^−6 cells and 12 μL min^−1 10^−6 cells, respectively. Moreover, the results for the half-life at 10 μM in series [2] and in series [4] were more than 7.67 h and 2.1 h, respectively. Also, the values for the IC50 in the series on IL-6 and in the series on IL-1β (setting [5]) were more than 100 µM and 1.4 µM, respectively.

For the compound `C=C(CC(=O)OC1(c2ccc(C(F)(F)F)cc2)COC1)C(=O)O` [Example 24, 2-methylene-4-oxo-4-((3-(4-(trifluoromethyl)phenyl)oxetan-3-yl)oxy)butanoic acid], the figures for the Clint in the series on hepatocytes [1] and in the series with hepatocytes [3] were less than 3 μL min^−1 10^−6 cells and 11 μL min^−1 10^−6 cells, respectively. Also, the half-life at 10 μM in series [2] is more than 7.67 h; in series [4] it was 2.42 h. Besides, the figures for the IC50 with IL-6 and in the series on IL-1β (setting [5]) were more than 100 µM and 1.4 µM, respectively.

Regarding `C=C(CC(=O)OC1(c2ccc(C#N)cc2)CCC1)C(=O)O` [Example 25, 4-(1-(4-cyanophenyl)cyclobutoxy)-2-methylene-4-oxobutanoic acid], the values for the Clint in the series on hepatocytes [1] and with hepatocytes [3] were 4 μL min^−1 10^−6 cells and 9 μL min^−1 10^−6 cells, respectively. The half-life at 10 μM was 5.65 h in series [2] and 2.95 h in series [4]. The IC50 in the series on IL-6 is more than 100 µM; with IL-1β (setting [5]), 15.5 µM.

As to `C=C(CC(=O)OC1(c2ccc(C(F)(F)F)cn2)CCC1)C(=O)O` [Example 27, 2-methylene-4-oxo-4-(1-(5-(trifluoromethyl)pyridin-2-yl)cyclobutoxy)butanoic acid], the Clint in the series with hepatocytes [1] and in the series with hepatocytes [3] was less than 3 μL min^−1 10^−6 cells throughout. Further, the half-life at 10 μM in series [2] and in series [4] was more than 7.67 h in each case. The half-maximal inhibitory concentration (IC50) is more than 100 µM in the series on IL-6, 1.4 µM in the series with IL-1β (setting [5]) and 4 µM with IL-1β (data from repeated experiments).

As for `C=C(CC(=O)OCc1ccc(C(F)(F)F)c(F)c1)C(=O)O` [Example 55, 4-((3-fluoro-4-(trifluoromethyl)benzyl)oxy)-2-methylene-4-oxobutanoic acid], the half-maximal inhibitory concentration (IC50) in the series on IL-6 was more than 100 µM; in the series on IL-1β (setting [5]), 19.5 µM. Moreover, the Clint with hepatocytes [3] was 29 μL min^−1 10^−6 cells. Also, in series [4], the half-life at 10 μM was 0.917 h.
